Measurements taken from patent publication US20080234232A1, “Methods and compositions for targeting AFAP” (priority 2007, published 2008).

How the values were obtained:
PH1 domain of AFAP-110 [1] = molecular target: T1, PH1 domain of AFAP-110 (Gallus gallus, UniProt Q90738); experiment: Lipid binding assay (Far Western), GST-PH1; settings: 0.5 μg/ml fusion protein, lipids spotted on membrane
T1 construct: AFAP-110 contains two PH domains, one amino terminal (PH1) and the other carboxy terminal (PH2); made in house; host or cells: bacteria
T1 sequence (Q90738 153-249 limits assumed): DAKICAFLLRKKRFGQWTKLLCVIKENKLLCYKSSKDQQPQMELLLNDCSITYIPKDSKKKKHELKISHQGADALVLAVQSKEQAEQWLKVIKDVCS
Description: (§1) FIG. 5: The phospholipid binding properties of the PH domains of AFAP-110. A) Pleckstrin homology fusion proteins, GST-PH1, GST-PH2 and GST-DAPP1, were purified from bacteria by affinity chromatography. Phospholipids were spotted onto PVDF membranes as described in the methods section. The membranes were incubated overnight with 0.5 μg/ml • GST-PH1, GST-PH2 or GST-DAPP1. Washed membranes were incubated with anti-GST antibody and exposed to film.
B) Pleckstrin homology fusion protein, GST-PH1, was purified from bacteria by affinity chromatography. Two-fold changes in concentration (1.6 pg-100.0 pg) of phospholipids were spotted onto PVDF membranes as described in the methods section. The PIP arrays were incubated with 0.5 μg/ml fusion protein and probed with anti-GST antibody.
Pleckstrin homology (PH) fusion proteins GST-PH1, GST-PH2 and GST-DAPP1, were purified from bacteria by affinity chromatography. A Far Western Blot procedure was used for detecting the fusion protein binding to nitrocellulose immobilized phospholipids (Stevenson, J. Met. al., 1998); PIP strips and PIP arrays were purchased from Echelon, Inc. Overlay assays measured the relative amounts of GST-tagged fusion protein bound to spotted phospholipids. A plasmid encoding GST-DAPP1 previously shown to bind Ptdlns-3,4-P2 and Ptdlns-3,4,5-P3 (Dowler, S. et. al., 1999) was used as a control, kindly provided by Mark Lemmon (Lemmon, M. A., 2003). The membranes were wetted with methanol and then transferred to blocking solution composed of 3% BSA in TBS containing 1% Tween-20 (TBS-T) for 1 hour at 4° C. Membranes were incubated with 0.5 μg/ml each fusion proteins in TBS-T overnight at 4° C. Following incubation, membranes were rinsed three times with TBS-T, washed for 5 minutes and incubated at 4° C. for 1 hour with anti-GST antibody (1:20000 in TBS-T). Following the standard wash procedure, membranes were incubated at 4° C. for 30 minutes with peroxidase-conjugated secondary antibody (1:30000 in TBS-T). The washed membranes were incubated with chemiluminescence reagent and exposed to X-ray film.

PH domain of DAPP1 = molecular target: T2, PH domain of DAPP1 (Homo sapiens, UniProt Q9UN19); experiment: Lipid binding assay (Far Western), GST-DAPP1; settings: 0.5 μg/ml fusion protein
T2 construct: GST-fusion proteins that expressed the PH domain of DAPP1 as a positive control; made in house; host or cells: bacteria (plasmid provided by Mark Lemmon)
T2 sequence (Q9UN19 164-259 limits assumed): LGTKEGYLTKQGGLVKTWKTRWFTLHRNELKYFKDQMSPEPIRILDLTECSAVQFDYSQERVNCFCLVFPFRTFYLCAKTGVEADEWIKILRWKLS
Description: as §1
C) Fusion protein, GST-DAPP1, was purified from bacteria by affinity chromatography. Two-fold changes in concentration (1.6 pg-100.0 pg) of phospholipids were spotted onto PVDF membranes as described in the methods section. Membranes were incubated with 0.5 μg/ml fusion proteins. Washed membranes were probed using with anti-GST antibody.
Pleckstrin homology (PH) fusion proteins GST-PH1, GST-PH2 and GST-DAPP1, were purified from bacteria by affinity chromatography. A Far Western Blot procedure was used for detecting the fusion protein binding to nitrocellulose immobilized phospholipids (Stevenson, J. Met. al., 1998); PIP strips and PIP arrays were purchased from Echelon, Inc. Overlay assays measured the relative amounts of GST-tagged fusion protein bound to spotted phospholipids. […]

PH1 domain of AFAP-110 [2] = molecular target: T1, PH1 domain of AFAP-110; experiment: Lipid sedimentation assay, GST-PH1; type: binding; settings: PC vesicles with lipid 19:1 (PC:PS 7:3), 0.025 mM GST fusion protein
Description: E) Lipid sedimentation assay was performed using pleckstrin homology fusion protein GST-PH1 as described in the methods sections. The GST-PH1 fusion protein has the capacity to co-sediment with several lipids containing vesicles as indicated in the pellet (P). Soluble fractions (S) containing unbound GST-PH1 purified fusion proteins were resolved by SDS-PAGE and detected by Coomassie stain.
A sedimentation assay was used to detect PH domain protein association with membrane phospholipids. Phospholipid stock solutions: 1 mg/ml L-α-Ptdlns-4-P, 1.0 mg/ml 1,2-dipalmitoyl-sn-glycero-3-Ptdlns-3-P, 0.1 mg/ml 1,2-dioleoyl-sn-glycero-3-Ptdlns-3,4-P2, and 1 mg/ml L-α-Ptdlns-4,5-P2 in chloroform:methanol:water (60:30:4). However, 10 mg/ml L-α-phosphatidylinositol, 0.1 mg/ml L-α Ptdlns-3-P, 0.2 mg/ml L-α-Ptdlns-3,4,5-P3, 10 mg/ml L-α-phosphatidylserine, and 10 mg/ml L-α-phosphatidylcholine in chloroform neat. All lipid stocks were purged with dry N2 and stored −20° C. The lipid vesicles were prepared as follows utilizing a sonication method. Briefly, in a heavy walled tube, PC and another stock phospholipid (e.g. Ptdlns, Ptdlns-3-P, Ptdlns-4-P, Ptdlns-3,4-P2, Ptdlns-3,5-P2, Ptdlns-3,4,5-P3, or PC) were combined in a 19:1 molar ratio; PC and PS were combined in a 7:3 molar ratio. Lipids were dried with a stream of N2 and traces of solvent were removed by vacuum and resuspended to 5.2 mM PC in buffer B [10 mM HEPES, pH 7.5, 50 mM KCl, 0.5 mM EGTA, and 1.0 mM MgCl2]. The resulting phospholipid sheets were sonicated to form vesicles. Samples were prepared to contain 1.7 mM vesicle PC and 0.025 mM recombinant GST fusion protein (DAPP1 or PH1) in buffer B. Samples were incubated 60 min and centrifuged with a Beckman Airfuge for 15 min at room temperature. 16% of the supernatant and 100% of the pellet from each sample was used for analysis by Laemmli method of SDS polyacrylamide gel electrophoresis. The gels were stained with SYPRO Orange or Coomassie Blue to visualize the proteins.

binding of GST-PH1 to immobilized phospholipid (far western) (PH1 domain of AFAP-110 [1]): binding the weakest
binding of GST-DAPP1 to immobilized phospholipid (far western) (PH domain of DAPP1): binds well
binding (co-sedimentation) of GST-PH1 to lipid vesicles containing the lipid (PH1 domain of AFAP-110 [2]): low
Substance: Phosphoinositol-3,4,5-trisphosphate [Ptdlns-3,4,5-P3]
